Each structure is given as a SMILES string.

Series [1] relates to PC3 prostate cancer cells. The experiment in a line: Three dimensional cell growth inhibitory assay (cellular spheres, MTT, microscopy): PC3. It counts as cell-based, human. The note with it: Homo sapiens. The method, then: For the three dimensional assay, cells in the logarithmic phase were cultured in 50% Matrigel-containing complete medium in 96-well plates at 37° C. with 5% CO2 for five days incubation, and treated with appropriate concentrations of test compounds for three generative times. Images of spheroids were taken under a microscope, and spheroid cell survival was determined by MTT assays.
The cells (in the 2D culture) and the cellular spheres (in the 3D culture) were treated with test compounds for 72 hours, and then subjected to the MTT colorimetric assay. Each value represents the mean of three independent experiments. Cellular spheres formed in semi-solid and drug effect on cellular spheres were examined using phase-contrast light microscopy.
More specifically, cellular spheres formed in semi-solid and drug effect on cellular spheres were examined using phase-contrast light microscopy. 3D structures of cells were analyzed using 4× magnification, 10× magnification, and 20× magnification.

The test system of series [2] is PC3 prostate cancer cells. Put plainly: Two dimensional cell growth inhibitory assay (MTT): PC3. The note with it: Homo sapiens.
Method: For the two dimensional assay, cancel cells in the logarithmic phase were cultured in complete medium in 96-well plates at 37° C. with 5% CO2 for overnight incubation, and treated with various concentrations of test compounds for three generative times. Cells were then incubated with a serum free medium containing 3-(4,5-dimethylthiazol-2-yl)-2,5-diphenyltetrazolium bromide (MTT) at a final concentration of 0.5 mg/mM for four hours. MTT was converted to formazan by metabolically viable cells. Formazan was then solublized in 50% DMF solution containing 20% SDS at 37° C. overnight. Absorbance was measured at 570 nm using a spectramax M5 microplate reader (Molecular Devices, UK).
For series [3], the system named is KB cell line (oral carcinoma). The experiment in a line: IC50 in human cancer cell lines (inhibiting HDAC): KB. Conditions: Homo sapiens, read-out: IC50, inhibiting HDAC in human cancer cell lines, KB, oral carcinoma.
Setting [4] is: Table 6, cell line not given, read-out: IC50 value 3D Culture.
Setting [5] is: read-out: IC50 value 2D Culture.

In the case of `COc1cccc2c1C(=O)c1c(O)c3c(c(O)c1C2=O)C[C@@](O)(C(=O)CO)C[C@@H]3O[C@H]1C[C@H](N)[C@H](O)[C@H](C)O1` [Adriamycin], the IC50 in series [1] (setting [4]) came out at 0.72 ± 0.04 µM; in series [1] (read-out: 3D Culture) it was 0.72 ± 0.04 µM; in series [2] (read-out: 2D Culture), 0.07 ± 0.03 µM; in series [2] (setting [5]), 0.07 ± 0.03 µM.
Consider `O=C(/C=C/c1cccc(S(=O)(=O)n2ccc3ccccc32)c1)NO` [Compound 1, (E)-3-(3-(1H-indol-1-ylsulfonyl)phenyl)-N-hydroxyacrylamide], for which the melting point – broadly, the temperature of the solid-liquid transition – was in the range of 188 to 191 °C. In addition, the IC50 in series [3] was below 6 µM.
`O=C(/C=C/c1cccc(S(=O)(=O)N2CCc3ccccc32)c1)NO` [Compound 2, (E)-N-hydroxy-3-(3-(indolin-1-ylsulfonyl)phenyl)acrylamide]: the melting point fell in the range of 207 to 209 °C. Besides, in series [3], the IC50 was below 6 µM.
Regarding `O=C(/C=C/c1cccc(S(=O)(=O)n2ccc3cncnc32)c1)NO` [Compound 4, (E)-3-(3-((7H-Pyrrolo[2,3-d]pyrimidin-7-yl)sulfonyl)phenyl)-N-hydroxyacrylamide], in series [3], the IC50 is below 6 µM.
In turn, `O=C(/C=C/c1cccc(S(=O)(=O)n2ccc3ncccc32)c1)NO` [Compound 5, (E)-3-(3-(1H-Pyrrolo[3,2-b]pyridin-1-ylsulfonyl)phenyl)-N-hydroxyacrylamide] showed a melting point of 148 to 150 °C.
In turn, `O=C(/C=C/c1cccc(S(=O)(=O)n2ccc3ccncc32)c1)NO` [Compound 6, (E)-3-(3-(1H-Pyrrolo[2,3-c]pyridin-1-ylsulfonyl)phenyl)-N-hydroxyacrylamide] displayed a melting point of 128 to 129 °C.
As to `COc1ccc(S(=O)(=O)N2CCc3cc(/C=C/C(=O)Nc4ccccc4N)cnc32)cc1` [Compound 6a, (E)-N-(2-aminophenyl)-3-(1-(4-methoxyphenylsulfonyl)-2,3-dihydro-1H-pyrrolo[2,3-b]pyridin-5-yl)acrylamide], in series [3], the IC50 is below 6 µM.
As for `O=C(/C=C/c1cccc(S(=O)(=O)N2CCc3cccnc32)c1)NO` [Compound 8, (E)-3-(3-(2,3-Dihydro-1H-pyrrolo[2,3-b]pyridin-1-ylsulfonyl)phenyl)-N-hydroxyacrylamide], the melting point was in the range of 228 to 230 °C. Further, the IC50 in series [3] is below 6 µM.
Consider `O=C(/C=C/c1ccc(S(=O)(=O)n2ncc3ccccc32)cc1)NO` [Compound 9, (E)-3-(4-(1H-Indazol-1-ylsulfonyl)phenyl)-N-hydroxyacrylamide], for which the IC50 in series [3] was below 6 µM.
Take `O=C(/C=C/c1ccc(S(=O)(=O)n2ccc3ncccc32)cc1)NO` [Compound 10, (E)-3-(4-(1H-Pyrrolo[3,2-b]pyridin-1-ylsulfonyl)phenyl)-N-hydroxyacrylamide]: the melting point was in the range of 188 to 190 °C. The IC50 in series [3] is below 6 µM.
As for `COc1ccc(S(=O)(=O)N2CCc3cc(C(=O)NO)cnc32)cc1` [Compound 10a, N-hydroxy-1-(4-methoxyphenylsulfonyl)-2,3-dihydro-1H-pyrrolo[2,3-b]pyridine-5-carboxamide], the IC50 in series [3] is below 6 µM.
`O=C(/C=C/c1ccc(S(=O)(=O)n2ccc3ccncc32)cc1)NO` [Compound 11, (E)-3-(4-(1H-Pyrrolo[2,3-c]pyridin-1-ylsulfonyl)phenyl)-N-hydroxyacrylamide] displayed a melting point of 167 to 169 °C. For the same compound, the IC50 in series [3] is below 6 µM.
Turning to `O=C(/C=C/c1ccc(S(=O)(=O)n2ccc3cccnc32)cc1)NO` [Compound 12, (E)-3-(4-(1H-Pyrrolo[2,3-b]pyridin-1-ylsulfonyl)phenyl)-N-hydroxyacrylamide], the melting point fell in the range of 169 to 170 °C.
`O=C(/C=C/c1ccc(S(=O)(=O)N2CCc3cccnc32)cc1)NO` [Compound 13, (E)-3-(4-(2,3-Dihydro-1H-pyrrolo[2,3-b]pyridin-1-ylsulfonyl)phenyl)-N-hydroxyacrylamide] came in with a melting point of 220 to 223 °C. For the same compound, the IC50 in series [3] was below 6 µM.
On to `Nc1ccccc1NC(=O)c1ccc(Cn2ccc3ccccc32)cc1` [Compound 14, 4-((1H-Indol-1-yl)methyl)-N-(2-aminophenyl)benzamide], for which, in series [3], the IC50 is below 6 µM.
For the compound `Nc1ccccc1NC(=O)c1ccc(CN2CCc3ccccc32)cc1` [Compound 15, N-(2-Aminophenyl)-4-(indolin-1-ylmethyl)benzamide], the IC50 in series [3] was below 6 µM.
As to `Nc1ccccc1NC(=O)c1ccc(Cn2ncc3ccccc32)cc1` [Compound 16, 4-((1H-Indazol-1-yl)methyl)-N-(2-aminophenyl)benzamide], the melting point was in the range of 185 to 188 °C. Moreover, the IC50 in series [3] was below 6 µM.
In the same order, the values of `Nc1ccccc1NC(=O)c1ccc(Cn2ccc3ncccc32)cc1` [Compound 17, 4-((1H-Pyrrolo[3,2-b]pyridin-1-yl)methyl)-N-(2-aminophenyl)-benzamide] are 116 to 118 °C and below 6 µM.
The corresponding values for `Nc1ccccc1NC(=O)c1ccc(Cn2ccc3cnccc32)cc1` [Compound 18, 4-((1H-Pyrrolo[3,2-c]pyridin-1-yl)methyl)-N-(2-aminophenyl)benzamide] are 165 to 167 °C and below 6 µM.
The corresponding values for `Nc1ccccc1NC(=O)c1ccc(Cn2ccc3ccncc32)cc1` [Compound 19, 4-((1H-Pyrrolo[2,3-c]pyridin-1-yl)methyl)-N-(2-aminophenyl)-benzamide] are 154 to 155 °C and below 6 µM.
In turn, `Nc1ccccc1NC(=O)c1ccc(Cn2ccc3cccnc32)cc1` [Compound 20, 4-((1H-Pyrrolo[2,3-b]pyridin-1-yl)methyl)-N-(2-aminophenyl)benzamide] yielded a melting point of 158 to 159 °C. Also, the IC50 in series [3] was below 6 µM.
The corresponding values for `Nc1ccccc1NC(=O)c1ccc(CN2CCc3cccnc32)cc1` [Compound 21, N-(2-Aminophenyl)-4-((2,3-dihydro-1H-pyrrolo[2,3-b]pyridin-1-yl)methyl)benzamide] are 105 to 107 °C and below 6 µM.
Regarding `O=C(NO)c1ccc(Cn2ccc3cccnc32)cc1` [Compound 23, N-Hydroxy-4-pyrrolo[2,3-b]pyridin-1-ylmethyl-benzamide], the IC50 in series [3] is below 6 µM.
Take `CC(=O)O[C@H]1C(=O)[C@@]2(C)[C@H]([C@H](OC(=O)c3ccccc3)[C@]3(O)C[C@H](OC(=O)[C@H](O)[C@@H](NC(=O)c4ccccc4)c4ccccc4)C(C)=C1C3(C)C)[C@]1(OC(C)=O)CO[C@@H]1C[C@@H]2O` [Paclitaxel]: the IC50 in series [1] (setting [4]) worked out at 5.85 ± 0.07 µM; in series [1] (read-out: 3D Culture), 5.85 µM; in series [2] (read-out: 2D Culture), 0.0002 ± 0.0001 µM; in series [2] (setting [5]), 0.0002 ± 0.0001 µM.
As to `CC[C@]1(O)C[C@H]2CN(CCc3c([nH]c4ccccc34)[C@@](C(=O)OC)(c3cc4c(cc3OC)N(C=O)[C@H]3[C@@](O)(C(=O)OC)[C@H](OC(C)=O)[C@]5(CC)C=CCN6CC[C@]43[C@@H]65)C2)C1` [Vincristine], the IC50 in series [1] (setting [4]) was found to be 0.0025 ± 0.00071 µM; in series [1] (read-out: 3D Culture), 0.0025 ± 0.00071 µM; in series [2] (read-out: 2D Culture), 0.00075 ± 0.00064 µM; in series [2] (setting [5]), 0.00075 ± 0.00064 µM.

Source of the values: patent publication US10246455B2, “Histone deacetylase inhibitors” (Taipei Medical University, priority 2014, dated 2019).
